# Source: ChEMBL document CHEMBL1201862, “PubChem BioAssay data set” (2004)
#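 Exposure lasted 48 hours, with cells grown in 96-well plates and compounds tested at five concentrations. The concentration for 50% growth inhibition is given as GI50.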 Calls of active or inactive are those of the source. Cut-off read from the data, not from the text of the source: active = GI50 up to about 1.1 µM and inactive = higher.
# Assays:
# Experiment in all cases: NCI tumour cell line growth inhibition, 48 h
# SNB-19 = test system: SNB-19
# COLO 205 = test system: COLO 205
# NCI-H460 = test system: NCI-H460
# SK-OV-3 = test system: SK-OV-3
# HL-60 = test system: HL-60
# CAKI-1 = test system: CAKI-1
# SR = test system: SR
# SNB-75 = test system: SNB-75
# T47D = test system: T47D
# IGROV-1 = test system: IGROV-1
# BT-549 = test system: BT-549
# MDA-MB-435 = test system: MDA-MB-435
# MCF7 = test system: MCF7
# OVCAR-5 = test system: OVCAR-5
# Hs-578T = test system: Hs-578T
# RPMI-8226 = test system: RPMI-8226
# SN12C = test system: SN12C
# PC-3 = test system: PC-3
# UACC-257 = test system: UACC-257
# M14 = test system: M14
Structure (SMILES),GI50 (SNB-19),GI50 (COLO 205),GI50 (NCI-H460),GI50 (SK-OV-3),GI50 (HL-60),GI50 (CAKI-1),GI50 (SR),GI50 (SNB-75),GI50 (T47D),GI50 (IGROV-1),GI50 (BT-549),GI50 (MDA-MB-435),GI50 (MCF7),GI50 (OVCAR-5),GI50 (Hs-578T),GI50 (RPMI-8226),GI50 (SN12C),GI50 (PC-3),GI50 (UACC-257),GI50 (M14)
CCSc1nnc(Sc2c3ccccc3nc3ccccc23)s1,44.2 µM (inactive),2.78 µM (inactive),19.6 µM (inactive),> 78 µM (inactive),0.692 µM (active),5.33 µM (inactive),3.19 µM (inactive),35.3 µM (inactive),4.22 µM (inactive),17.3 µM (inactive),17.6 µM (inactive),9.84 µM (inactive),3.92 µM (inactive),20 µM (inactive),32.7 µM (inactive),3.91 µM (inactive),15.2 µM (inactive),20.3 µM (inactive),7.98 µM (inactive),11.5 µM (inactive)
CCOC(=O)c1c(C)[nH]c2c1c(CN(C)C)c(O)c1nc(C)c(C)nc12,31.1 µM (inactive),14.5 µM (inactive),18.4 µM (inactive),32.3 µM (inactive),8.09 µM (inactive),28.4 µM (inactive),16.5 µM (inactive),23.3 µM (inactive),27 µM (inactive),24.2 µM (inactive),26.2 µM (inactive),25.6 µM (inactive),17.9 µM (inactive),28.4 µM (inactive),22.8 µM (inactive),18.5 µM (inactive),12.6 µM (inactive),19.5 µM (inactive),23.5 µM (inactive),36.1 µM (inactive)
CC(C)C(=O)C(C)(C)CCc1ccccn1,> 100 µM (inactive),> 100 µM (inactive),> 100 µM (inactive),> 100 µM (inactive),> 100 µM (inactive),> 100 µM (inactive),> 100 µM (inactive),> 100 µM (inactive),> 100 µM (inactive),> 100 µM (inactive),> 100 µM (inactive),> 100 µM (inactive),> 100 µM (inactive),> 100 µM (inactive),> 100 µM (inactive),> 100 µM (inactive),> 100 µM (inactive),> 100 µM (inactive),> 100 µM (inactive),> 100 µM (inactive)
CC1OC(OC2C(OC(=O)[C@]34CCC(C)(C)C[C@H]3C3=CC[C@@H]5[C@@]6(C)CC[C@H](OC7OC(C(=O)O)C(O)C(O)C7O)C(C)(C)[C@@H]6CC[C@@]5(C)[C@]3(C)C[C@H]4O)OCC(O)C2O)C(O)C(OC2OCC(O)(CO)C2O)C1OC1OCC(O)C(O)C1O (stereo not given in full),11 µM (inactive),1.81 µM (inactive),18.2 µM (inactive),15.6 µM (inactive),3.19 µM (inactive),6.62 µM (inactive),3.94 µM (inactive),17.7 µM (inactive),8.47 µM (inactive),16 µM (inactive),5.42 µM (inactive),6.59 µM (inactive),6.17 µM (inactive),10.8 µM (inactive),20.3 µM (inactive),7.23 µM (inactive),3.37 µM (inactive),8.55 µM (inactive),11.1 µM (inactive),10.8 µM (inactive)
c1ccc2nc(CCC3CCCCN3)ccc2c1 (stereo not given),> 100 µM (inactive),16.7 µM (inactive),87.9 µM (inactive),> 100 µM (inactive),67.9 µM (inactive),> 100 µM (inactive),68.5 µM (inactive),92.3 µM (inactive),54.5 µM (inactive),69.8 µM (inactive),61.7 µM (inactive),97.7 µM (inactive),> 100 µM (inactive),> 100 µM (inactive),> 100 µM (inactive),39.9 µM (inactive),> 100 µM (inactive),> 100 µM (inactive),42.7 µM (inactive),> 100 µM (inactive)
C=C1C(=O)OC2C(C)C3C=CC(=O)[C@@]3(C)C(OC(=O)/C(C)=C/C)C1[C@@H]2OC(C)=O (stereo not given in full),1.89 µM (inactive),0.333 µM (active),0.3 µM (active),1.59 µM (inactive),0.327 µM (active),0.553 µM (active),0.168 µM (active),1.1 µM (active),0.336 µM (active),0.78 µM (active),0.28 µM (active),0.267 µM (active),0.458 µM (active),1.88 µM (inactive),0.308 µM (active),0.486 µM (active),0.468 µM (active),0.522 µM (active),0.641 µM (active),0.673 µM (active)
COc1cc2c(/C=C3/C(=O)Nc4ccc(Cl)cc43)c(Cl)n(Cc3ccccc3)c2cc1C,3.1 µM (inactive),2.41 µM (inactive),3.3 µM (inactive),1.74 µM (inactive),3.93 µM (inactive),2.97 µM (inactive),2.72 µM (inactive),2.04 µM (inactive),3.17 µM (inactive),3.29 µM (inactive),7.85 µM (inactive),2.43 µM (inactive),5 µM (inactive),2.51 µM (inactive),4.56 µM (inactive),2.51 µM (inactive),2.59 µM (inactive),5.89 µM (inactive),6.34 µM (inactive),4.19 µM (inactive)
CCCN1CC=C(c2cc(C(=O)OCC)[nH]c2-c2cc(C)no2)C1=O,> 100 µM (inactive),> 100 µM (inactive),> 100 µM (inactive),> 100 µM (inactive),> 100 µM (inactive),> 100 µM (inactive),54.7 µM (inactive),30.8 µM (inactive),> 100 µM (inactive),> 100 µM (inactive),> 100 µM (inactive),> 100 µM (inactive),> 100 µM (inactive),> 100 µM (inactive),> 100 µM (inactive),75 µM (inactive),> 100 µM (inactive),> 100 µM (inactive),> 100 µM (inactive),> 100 µM (inactive)
O=C(NO)NCCCl,> 100 µM (inactive),> 100 µM (inactive),> 100 µM (inactive),> 100 µM (inactive),> 100 µM (inactive),> 100 µM (inactive),> 100 µM (inactive),> 100 µM (inactive),> 100 µM (inactive),> 100 µM (inactive),> 100 µM (inactive),> 100 µM (inactive),> 100 µM (inactive),> 100 µM (inactive),> 100 µM (inactive),> 100 µM (inactive),> 100 µM (inactive),> 100 µM (inactive),> 100 µM (inactive),> 100 µM (inactive)
C=C1CC2(CC(c3ccccc3Cl)OC(c3ccccc3Cl)C2)OC1=O (stereo not given),15.2 µM (inactive),2.31 µM (inactive),5.08 µM (inactive),6.87 µM (inactive),1.05 µM (active),2 µM (inactive),2.52 µM (inactive),3.17 µM (inactive),1.68 µM (inactive),2.02 µM (inactive),2.02 µM (inactive),1.8 µM (inactive),2.11 µM (inactive),8.73 µM (inactive),1.88 µM (inactive),0.752 µM (active),2.37 µM (inactive),2.89 µM (inactive),2.08 µM (inactive),1.71 µM (inactive)
